Tests used:
[1] = tested on: Septoria leaf blotch (Mycosphaerella graminicola); test: Growth inhibition of Septoria leaf blotch in YBG medium, microtiter plate, absorbance at 600 nm (Test Example 1); type: cell-based; conditions: 18° C., four days
Method: Fluopyram and fluxapyroxad were respectively dissolved in dimethyl sulfoxide, and agent solutions were prepared so that the concentration of each compound was 100 times the concentration described in Table 1. The agent solution was dispensed into each well of a microtiter plate (96 wells) in 1 μl portion, and then 99 μL of YBG medium to which conidia of Septoria leaf blotch (Mycosphaerella graminicola) was inoculated in advance (which was prepared by dissolving 10 g of yeast extract, 10 g of Bacto Peptone, and 20 mL of glycerol into 1 L of water, followed by sterilizing the medium) was dispensed into each of the well to which the agent solution was dispensed. The plate was cultivated at 18° C. for four days, thereby allowing Septoria leaf blotch to undergo proliferation, and the absorbance at 600 nm of a sample in each well of the microtiter plate was then measured to examine a degree of growth of Septoria leaf blotch (hereinafter referred to as “treated group”). Whereas, Septoria leaf blotch was grown similarly to the case of the treated group using dimethyl sulfoxide instead of the agent solution, and the degree of growth was measured (hereinafter referred to as “untreated group”). The efficacy was calculated from each of the obtained degree of growth of the treated group and the untreated group respectively by the following “Equation 1”.
Efficacy (%)=100×(X−Y)/X Equation 1
X: Degree of growth of fungus in the untreated group
Y: Degree of growth of fungus in the treated group

[2] = tested on: powdery mildew (Sphaerotheca fuliginea); test: Cucumber powdery mildew control, spray on plantlets (Test Example 2); type: in vivo; conditions: 10 days
From the text: Fluopyram and fluxapyroxad were respectively mixed with surfactant and crushed in a grinding equipment to obtain a crushed composition. The crushed composition was then mixed with tap water so as to have the compound at the concentration described in Table 2 to obtain spray liquid. The spray liquid was sprayed onto cucumber (Cultivar: Hanjiro Fushinari) plantlet at run-off water volume. Plantlets were then air dried before artificially inoculated by putting the test plantlets in the same room where cucumber with powdery mildew (Sphaerotheca fuliginea) symptoms were grown. The plantlet were grown in the room for 10 days and the degree of disease severity on leaves was measured (hereinafter referred to as “treated group”).
The same operation was carried out […] (hereinafter referred to as “untreated group”).
The controlling value was calculated from each of the obtained degree of disease severity on leaves of the treated group and the untreated group respectively by the following “Equation 2”.
Controlling value (%)=100×(X−Y)/X Equation 2
X: Degree of disease severity on leaves in the untreated group
Y: Degree of disease severity on leaves in the treated group

Row | SMILES | Efficacy (%) ([1]; Fluxapyroxad 0.18 ppm alone) | Efficacy (%) ([1]; Fluxapyroxad 0.5 ppm alone) | Controlling value (%) ([2]; Fluxapyroxad 0.4 mg/L alone) | Controlling value (%) ([2]; Fluxapyroxad 2.0 mg/L alone) | Efficacy (%) ([1]; Fluopyram 0.1 ppm alone) | Efficacy (%) ([1]; Fluopyram 1.75 ppm alone) | Controlling value (%) ([2]; Fluopyram 0.4 mg/L alone) | Controlling value (%) ([2]; Fluopyram 4.0 mg/L alone)
1 | Cn1cc(C(=O)Nc2ccccc2-c2cc(F)c(F)c(F)c2)c(C(F)F)n1 [Fluxapyroxad] | 71% | 82% | 16% | 34% |  |  |  | 
2 | O=C(NCCc1ncc(C(F)(F)F)cc1Cl)c1ccccc1C(F)(F)F [Fluopyram] |  |  |  |  | 24% | 60% | 32% | 50%

Reference: patent publication US20220211038A1, “COMPOSITION AND METHOD FOR PROTECTING PLANT AGAINST DISEASE AND PEST” (SUMITOMO CHEMICAL COMPANY, LIMITED, priority 2019, published 2022)
